14 molecules from ChEMBL document CHEMBL1150477, “Development of angiotensin II antagonists with equipotent affinity for human AT1 and AT2 receptor subtypes” (Bioorg Med Chem Lett, 1994) can be followed below.

Each structure is given as a SMILES string. Positions count from the first letter of the chain named.

Assay [1] deals with T1, Type-1 angiotensin II receptor (Homo sapiens, UniProt P30556).
T1 sequence (P30556 whole entry): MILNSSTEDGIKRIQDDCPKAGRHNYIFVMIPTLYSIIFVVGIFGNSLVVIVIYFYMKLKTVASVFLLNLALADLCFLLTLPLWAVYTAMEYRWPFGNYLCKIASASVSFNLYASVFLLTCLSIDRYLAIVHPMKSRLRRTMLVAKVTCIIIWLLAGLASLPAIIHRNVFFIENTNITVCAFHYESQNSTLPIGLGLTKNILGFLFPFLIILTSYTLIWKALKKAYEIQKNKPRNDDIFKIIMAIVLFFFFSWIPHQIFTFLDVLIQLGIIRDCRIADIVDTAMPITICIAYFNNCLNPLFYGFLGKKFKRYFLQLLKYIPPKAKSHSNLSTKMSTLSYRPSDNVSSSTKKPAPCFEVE
Put plainly: […] inhibitory concentration against Angiotensin II receptor, type 1 of human adrenal membrane.

The target of assay [2] is T2, Type-1 angiotensin II receptor (Oryctolagus cuniculus, UniProt P34976).
T2 sequence (P34976 whole entry): T1 sequence (P30556 whole entry) with I2M, V49A, I254V, I270V, R272H, R311K, T349S, A353V
Put plainly: […] inhibitory concentration against Angiotensin II receptor, type 1 of rabbit aorta membrane.

Assay [3] has as its target T3, Type-2 angiotensin II receptor (Rattus norvegicus, UniProt P35351).
T3 sequence (P35351 whole entry): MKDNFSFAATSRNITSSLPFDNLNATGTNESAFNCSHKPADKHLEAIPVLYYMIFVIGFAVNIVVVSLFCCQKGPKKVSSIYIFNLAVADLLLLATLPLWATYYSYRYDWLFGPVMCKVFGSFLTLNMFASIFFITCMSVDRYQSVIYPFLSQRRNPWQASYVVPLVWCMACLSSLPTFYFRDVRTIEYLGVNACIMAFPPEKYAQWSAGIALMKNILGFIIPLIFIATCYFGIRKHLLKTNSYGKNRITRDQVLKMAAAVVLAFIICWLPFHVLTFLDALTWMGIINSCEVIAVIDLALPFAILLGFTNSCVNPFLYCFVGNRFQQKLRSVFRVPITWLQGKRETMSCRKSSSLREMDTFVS
Put plainly: […] inhibitory concentration against AT2 receptor of rat adrenal membrane.

Assay [4] concerns the target T3, Type-2 angiotensin II receptor. Put plainly: […] inhibitory concentration against Angiotensin II, type 2 of rat midbrain membrane.
Assay [5] has as its target Angiotensin II receptor (Homo sapiens) (UniProt P30556+P50052). Put plainly: Ratio of inhibitory concentration against AT2 receptor and AT1 receptor of human adrenal membrane.
The species named for assay [6] is Oryctolagus cuniculus. Put plainly: Ratio of inhibitory concentration against AT2 receptor of rat midbrain to AT1 receptor of rabbit aorta.
The target of assay [7] is T4, Angiotensin II receptor (AT-1) type-1 (Rattus norvegicus, UniProt P29089+P25095).
T4 sequence (P29089 whole entry): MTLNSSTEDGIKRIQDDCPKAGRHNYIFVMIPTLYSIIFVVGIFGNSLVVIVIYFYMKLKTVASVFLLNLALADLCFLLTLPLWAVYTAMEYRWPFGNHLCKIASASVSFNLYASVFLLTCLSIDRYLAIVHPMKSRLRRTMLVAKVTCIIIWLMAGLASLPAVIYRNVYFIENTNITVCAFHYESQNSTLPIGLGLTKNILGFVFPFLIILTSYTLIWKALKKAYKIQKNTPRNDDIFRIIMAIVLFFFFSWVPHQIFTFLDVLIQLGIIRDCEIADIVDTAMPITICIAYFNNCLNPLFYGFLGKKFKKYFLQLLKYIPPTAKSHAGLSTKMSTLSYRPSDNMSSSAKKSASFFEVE
T4 sequence (P25095 whole entry): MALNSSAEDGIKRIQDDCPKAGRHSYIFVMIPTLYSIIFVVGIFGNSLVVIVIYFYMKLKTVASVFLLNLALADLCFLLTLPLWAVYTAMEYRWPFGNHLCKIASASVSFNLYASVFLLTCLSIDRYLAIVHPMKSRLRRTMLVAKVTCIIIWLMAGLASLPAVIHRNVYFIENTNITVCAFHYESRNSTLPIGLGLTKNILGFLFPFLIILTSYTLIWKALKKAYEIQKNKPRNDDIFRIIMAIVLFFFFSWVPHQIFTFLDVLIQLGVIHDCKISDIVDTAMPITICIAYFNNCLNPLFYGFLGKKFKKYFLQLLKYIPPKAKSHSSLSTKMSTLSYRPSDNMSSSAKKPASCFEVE
Put plainly: […] inhibitory concentration against Angiotensin II receptor, type 1 of rat adrenal membrane.

Assay [8] deals with T5, Type-2 angiotensin II receptor (Homo sapiens, UniProt P50052).
T5 sequence (P50052 whole entry): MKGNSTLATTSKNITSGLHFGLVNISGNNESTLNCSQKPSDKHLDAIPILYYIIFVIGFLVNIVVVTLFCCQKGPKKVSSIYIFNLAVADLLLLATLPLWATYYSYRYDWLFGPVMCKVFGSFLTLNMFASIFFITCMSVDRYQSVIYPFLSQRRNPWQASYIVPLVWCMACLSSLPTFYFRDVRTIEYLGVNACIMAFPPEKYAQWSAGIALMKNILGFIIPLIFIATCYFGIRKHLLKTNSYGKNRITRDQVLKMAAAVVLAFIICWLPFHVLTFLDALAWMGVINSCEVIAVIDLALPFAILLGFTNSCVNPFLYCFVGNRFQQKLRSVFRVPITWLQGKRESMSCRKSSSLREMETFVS
Put plainly: […] inhibitory concentration against AT2 receptor of human adrenal membrane.

In assay [9] the target is Angiotensin II receptor (Rattus norvegicus) (UniProt P29089+P25095+P35351). Put plainly: Ratio of inhibitory concentration against AT2 receptor and AT1 receptor of rat adrenal membrane.

For orientation: IC50 means the midpoint of a concentration-inhibition curve. Consider `CCc1nc2ccc(NC(=O)N(C)C(C)C)cc2c(=O)n1Cc1ccc(-c2ccccc2S(=O)(=O)NC(=O)OCCC(C)C)cc1F`, for which the IC50 turned out to be 10 nM in assay [1]; 0.62 nM in assay [2]; 0.3 nM in assay [3]; 0.2 nM in assay [4]; 0.3 nM in assay [7]; 9.2 nM in assay [8]. Moreover, the figures for the Ratio in assay [5], in assay [6] and in assay [9] were 0.9, 0.33 and 1.1, respectively.
As for `CCCCOC(=O)NS(=O)(=O)c1ccccc1-c1ccc(Cn2c(CCCC)nc3ccc(NC(=O)N(C)C(C)C)cc3c2=O)cc1`, the concentration for half-maximal inhibition (IC50) is 0.24 nM in assay [2], 2.4 nM in assay [4] and 60 nM in assay [8].
On to `Cc1nc2ccc(NC(=O)N(C)C(C)C)cc2c(=O)n1Cc1ccc(-c2ccccc2S(=O)(=O)NC(=O)OCCC(C)C)cc1F`, for which the half-maximal inhibitory concentration (IC50) is 26.5 nM in assay [1]; 2.3 nM in assay [2]; 0.72 nM in assay [3]; 1.05 nM in assay [4]; 0.58 nM in assay [7]; 12.5 nM in assay [8]. Moreover, the figures for the Ratio in assay [5], in assay [6] and in assay [9] were 0.47, 0.45 and 1.24, respectively.
Turning to `Cc1nc2ccc(NC(=O)N(C)C)cc2c(=O)n1Cc1ccc(-c2ccccc2S(=O)(=O)NC(=O)OCCC2CC2)cc1F`, the IC50 in [1] was determined as 12 nM; in assay [2] it was 2.3 nM; in assay [3], 2.4 nM; in [4] it was 6.6 nM; in [7], 2.3 nM; in assay [8] it was 12 nM. Besides, the Ratio stood at 0.96 in assay [5], 3.3 in [6] and 1.2 in assay [9].
Take `CCCCOC(=O)NS(=O)(=O)c1ccccc1-c1ccc(Cn2c(CCCC)nc3ccc(NC(=O)N(C)C(C)C)cc3c2=O)c(F)c1`: the IC50 was 0.89 nM in assay [1]; 0.19 nM in assay [2]; 0.77 nM in assay [3]; 0.44 nM in assay [4]; 0.25 nM in [7]; 7.7 nM in assay [8]. The figures for the Ratio in assay [5], in assay [6] and in [9] were 8.7, 2.7 and 3.2, respectively.
As for `Cc1nc2ccc(NC(=O)NC(C)C)cc2c(=O)n1Cc1ccc(-c2ccccc2S(=O)(=O)NC(=O)OCCC(C)C)cc1F`, the half-inhibitory concentration (IC50) was 15 nM in assay [1]; 1.2 nM in assay [2]; 0.63 nM in [3]; 0.7 nM in assay [4]; 0.5 nM in [7]; 11 nM in assay [8]. In addition, the Ratio in [5] came to 0.93; in assay [6] it was 0.59; in assay [9], 1.2.
Consider `CCNC(=O)Nc1ccc2nc(CC)n(Cc3ccc(-c4ccccc4S(=O)(=O)NC(=O)c4ccccc4F)cc3F)c(=O)c2c1`, for which the half-maximal inhibitory concentration (IC50) was found to be 59 nM in [1]; 4 nM in [2]; 4.5 nM in assay [3]; 1.6 nM in assay [4]; 3.9 nM in assay [7]; 65 nM in [8]. Moreover, the Ratio is 1.1 in assay [5], 0.46 in [6] and 1.4 in assay [9].
Turning to `CCCc1nc2ccc(NC(=O)N3CCOCC3)cc2c(=O)n1Cc1ccc(-c2ccccc2S(=O)(=O)NC(=O)OCCC(C)C)cc1F`, the half-inhibitory concentration (IC50) was determined as 0.71 nM in assay [1]; 0.24 nM in assay [2]; 0.5 nM in assay [3]; 0.48 nM in [4]; 0.13 nM in [7]; 3.3 nM in assay [8]. The results for the Ratio in assay [5], in assay [6] and in [9] were 4.7, 2.3 and 4.3, respectively.
Consider `CCc1nc2ccc(NC(=O)N(C)C(C)C)cc2c(=O)n1Cc1ccc(-c2ccccc2S(=O)(=O)NC(=O)COCC(C)C)cc1F`, for which the IC50 in assay [1] was 65 nM; in assay [2] it was 2.2 nM; in [3], 0.61 nM; in assay [4], 0.21 nM; in [7], 2 nM; in assay [8] it was 11 nM. Further, the Ratio in assay [5] came out at 0.18; in assay [6] it was 0.1; in assay [9] it was 0.3.
For `CCc1ccc(C(=O)NS(=O)(=O)c2ccccc2-c2ccc(Cn3c(CC)nc4ccc(NC(=O)NC(C)C)cc4c3=O)c(F)c2)c(F)c1`, the concentration for half-maximal inhibition (IC50) in [1] was 1.6 nM; in assay [2], 0.19 nM; in assay [3], 0.34 nM; in assay [4] it was 0.25 nM; in [7] it was 0.14 nM; in assay [8], 3.1 nM. Moreover, the Ratio in assay [5] was determined as 2; in assay [6], 1.3; in [9] it was 2.5.
With `CCCc1nc2ccc(NC(=O)NC(C)C)cc2c(=O)n1Cc1ccc(-c2ccccc2S(=O)(=O)NC(=O)COCC(C)C)cc1F`, the IC50 in assay [1] stood at 1.5 nM; in assay [2] it was 0.52 nM; in [3] it was 0.38 nM; in assay [4] it was 1 nM; in assay [7], 0.17 nM; in assay [8], 3.5 nM. The Ratio in assay [5] turned out to be 2.3; in [6], 1.7; in assay [9], 2.1.
As to `CCCCOC(=O)NS(=O)(=O)c1ccccc1-c1ccc(Cn2c(CC)nc3ccc(NC(=O)N4CCOCC4)cc3c2=O)c(F)c1`, the IC50 in [1] was determined as 33 nM; in [2], 3.8 nM; in assay [3] it was 2.5 nM; in assay [4], 1.3 nM; in assay [7], 1.3 nM; in assay [8], 32 nM. The Ratio in assay [5] was determined as 1; in [6], 0.38; in [9] it was 2.2.
With `CCc1nc2ccc(NC(=O)N3CCOCC3)cc2c(=O)n1Cc1ccc(-c2ccccc2S(=O)(=O)NC(=O)OCCC(C)C)cc1F`, the IC50 in [1] is 18 nM; in [2], 2 nM; in assay [3], 0.95 nM; in assay [4] it was 0.31 nM; in assay [7], 0.66 nM; in assay [8], 65 nM. Besides, the results for the Ratio in assay [6] and in assay [9] were 0.16 and 1.5, respectively.
On to `CCCCCN(C(=O)c1ccccc1)c1ccc2nc(CCC)n(Cc3ccc(-c4ccccc4-c4nn[nH]n4)cc3)c(=O)c2c1`, for which the IC50 in assay [2] worked out at 1.5 nM; in [8] it was 7 nM.
